The text below walks through data of ChEMBL document CHEMBL5113383, “Application of the All-Hydrocarbon Stapling Technique in the Design of Membrane-Active Peptides” (J Med Chem, 2022).

One data set deals with Candida parapsilosis. The data set is described as follows: Antimicrobial activity against Candida parapsilosis ATCC 22010. The class given is functional. Conditions: Lodderomyces parapsilosis.
The next data set deals with Pichia kudriavzevii. The data set is described as follows: Antimicrobial activity against Candida krusei ATCC 2340. Format: functional.
Data set [1] deals with [Candida] auris. The data set is described as follows: Antimicrobial activity against Candida auris 918. Format: functional. The conditions noted are these: Candidozyma auris.
The subject of data set [2] is Candida tropicalis. The data set is described as follows: Antimicrobial activity against Candida tropicalis ATCC 20026. The class given is functional.
Data set [3] concerns Nakaseomyces glabratus. The data set is described as follows: Antimicrobial activity against Candida glabrata 896. The class given is functional.
In data set [4] the test system is Candida albicans. Kind of data set: Antimicrobial activity against Candida albicans SC5314. The class given is functional.
The test system of data set [5] is Candida albicans. The data set is described as follows: Antimicrobial activity against Candida albicans 901. Format: functional.
In data set [6] the test system is Candida tropicalis. Kind of data set: Antimicrobial activity against Candida tropicalis 895. Format: functional.
The subject of data set [7] is [Candida] auris. The data set is described as follows: Antimicrobial activity against Candida auris 919. Format: functional. Conditions: Candidozyma auris.
Data set [8] relates to Nakaseomyces glabratus. Kind of data set: Antimicrobial activity against Candida glabrata ATCC 1182. The class given is functional.
The test system of data set [9] is Candida albicans. The data set is described as follows: Antimicrobial activity against Candida albicans 904. Format: functional.
A short description of data set [10]: Hemolytic activity in human erythrocytes incubated for 30 mins. The class given is toxicity, cell-based, Erythrocyte.

SMILES strings stand for the structures. Converted amounts (≈) assume the structure as drawn. Positions of bridges follow the written chain, without caps; N, C: chain ends. Non-standard residues stand in square brackets, D forms with d. Residues, ends and D or L forms follow the SMILES beside them. S5 = C=CCCC[C@](C)(N)C(=O)O Some results are limits rather than exact numbers.

As usually defined, the MIC is the least concentration at which growth counts as inhibited. A high value points to a need for much substance. One may read the HC50 as the concentration giving 50% haemolysis. High values mean weaker haemolysis, low ones stronger haemolysis.

As to `CC[C@H](C)[C@H](NC(=O)[C@H](CCCCN)NC(=O)[C@H](CCCCN)NC(=O)[C@]1(C)CCC/C=C\CCC[C@](C)(NC(=O)CNC(C)=O)C(=O)N[C@@H](Cc2ccccc2)C(=O)N[C@@H](CC(=O)O)C(=O)N[C@@H]([C@@H](C)CC)C(=O)N1)C(=O)N[C@@H](C)C(=O)N[C@@H](CCC(=O)O)C(=O)N[C@@H](CO)C(=O)N[C@@H](Cc1ccccc1)C(N)=O` (Ac-G[S5]FDI[S5]KKIAESF-NH2; staple (Z) 2-6), the MIC against Candida parapsilosis is over 128 µg/mL; against Pichia kudriavzevii, over 128 µg/mL; in data set [Candida] auris [1] it was over 128 µg/mL; in the data set with Candida tropicalis [2], over 128 µg/mL; against Nakaseomyces glabratus [3], 128 µg/mL (≈ 82.8 µM); against Candida albicans [4], over 64 µg/mL. The MIC against Candida albicans [5] was over 128 µg/mL; against Candida tropicalis [6] it was 16 µg/mL (≈ 10.4 µM); in data set [Candida] auris [7], over 128 µg/mL; in the data set on Nakaseomyces glabratus [8], over 128 µg/mL; in the data set with Candida albicans [9], over 128 µg/mL.
Consider `CC(=O)N[C@@H](CCCCN)C(=O)N[C@@]1(C)CCC/C=C\CCC[C@@](C)(C(=O)N[C@@H](CCCCN)C(N)=O)NC(=O)[C@H](CC(C)C)NC(=O)[C@H](CCCCN)NC(=O)[C@H](Cc2c[nH]c3ccccc23)NC1=O` (Ac-K[S5]WKL[S5]K-NH2; staple (Z) 2-6), for which, in [10], the HC50 at 0.5 h was under 1 µM.
For `OC(Cn1cncn1)(Cn1cncn1)c1ccc(F)cc1F` [FLUCONAZOLE], the minimal inhibitory concentration (MIC) was 1 µg/mL (≈ 3.27 µM) against Candida parapsilosis; 64 µg/mL (≈ 209 µM) with Pichia kudriavzevii; over 128 µg/mL in data set [Candida] auris [1]; 1 µg/mL (≈ 3.27 µM) in the data set on Candida tropicalis [2]; over 128 µg/mL against Nakaseomyces glabratus [3]; 0.5 µg/mL (≈ 1.63 µM) in the data set on Candida albicans [4]. Also, the MIC in the data set on Candida albicans [5] was over 64 µg/mL; against Candida tropicalis [6], over 128 µg/mL; in data set [Candida] auris [7], over 128 µg/mL; against Nakaseomyces glabratus [8] it was 2 µg/mL (≈ 6.53 µM); against Candida albicans [9] it was over 64 µg/mL.
The compound `CC[C@H](C)[C@H](N)C(=O)N[C@@H](CC(=O)O)C(=O)N[C@@H](Cc1c[nH]c2ccccc12)C(=O)N[C@@H](CCCCN)C(=O)N[C@@H](CCCCN)C(=O)N[C@@]1(C)CCC/C=C\CCC[C@@](C)(C(=O)N[C@@H](CCCCN)C(=O)N[C@@H](CCC(N)=O)C(=O)N[C@H](C(=O)N[C@@H](CC(C)C)C(=O)O)[C@@H](C)CC)NC(=O)[C@H](C)NC(=O)[C@H](CC(=O)O)NC(=O)[C@H](CC(C)C)NC1=O` (H-IDWKK[S5]LDA[S5]KQIL-OH; staple (Z) 6-10) had an HC50 at 0.5 h in data set [10] of 12.3 µM.
For the compound `CC[C@H](C)[C@@H]1NC(=O)[C@@](C)(NC(=O)[C@H](CC(=O)O)NC(=O)[C@H](Cc2ccccc2)NC(=O)[C@H](CC(C)C)NC(=O)CNC(C)=O)CCC/C=C\CCC[C@@](C)(C(=O)N[C@@H](C)C(=O)N[C@@H](CCC(=O)O)C(=O)N[C@@H](CO)C(=O)N[C@@H](Cc2ccccc2)C(N)=O)NC(=O)[C@H](CCCCN)NC(=O)[C@H](CCCCN)NC1=O` (Ac-GLFD[S5]IKK[S5]AESF-NH2; staple (Z) 5-9), the MIC is over 128 µg/mL with Candida parapsilosis; over 128 µg/mL against Pichia kudriavzevii; over 128 µg/mL in data set [Candida] auris [1]; over 128 µg/mL with Candida tropicalis [2]; over 128 µg/mL against Nakaseomyces glabratus [3]; 16 µg/mL (≈ 10.4 µM) in the data set with Candida albicans [4]. Moreover, the MIC with Candida albicans [5] was over 128 µg/mL; against Candida tropicalis [6] it was 16 µg/mL (≈ 10.4 µM); in data set [Candida] auris [7], over 128 µg/mL; in the data set on Nakaseomyces glabratus [8], over 128 µg/mL; against Candida albicans [9] it was over 128 µg/mL.
Consider `CC[C@H](C)[C@H](NC(=O)[C@H](CCCCN)NC(=O)[C@H](CCCCN)NC(=O)[C@@H](NC(=O)[C@]1(C)CCC/C=C\CCC[C@](C)(NC(C)=O)C(=O)N[C@@H](CC(C)C)C(=O)N[C@@H](Cc2ccccc2)C(=O)N[C@@H](CC(=O)O)C(=O)N1)[C@@H](C)CC)C(=O)N[C@@H](C)C(=O)N[C@@H](CCC(=O)O)C(=O)N[C@@H](CO)C(=O)N[C@@H](Cc1ccccc1)C(N)=O` (Ac-[S5]LFD[S5]IKKIAESF-NH2; staple (Z) 1-5), for which the minimal inhibitory concentration (MIC) in the data set on Candida parapsilosis is 128 µg/mL (≈ 79.9 µM); against Pichia kudriavzevii, over 128 µg/mL; in data set [Candida] auris [1], over 128 µg/mL; with Candida tropicalis [2], over 128 µg/mL; against Nakaseomyces glabratus [3], over 128 µg/mL; with Candida albicans [4] it was over 64 µg/mL. Also, the MIC with Candida albicans [5] was 32 µg/mL (≈ 20 µM); against Candida tropicalis [6], over 128 µg/mL; in data set [Candida] auris [7] it was over 128 µg/mL; in the data set on Nakaseomyces glabratus [8], over 128 µg/mL; with Candida albicans [9], over 128 µg/mL.
Turning to `CC[C@H](C)[C@H](NC(=O)[C@H](CC(=O)O)NC(=O)[C@H](Cc1ccccc1)NC(=O)[C@H](CC(C)C)NC(=O)CNC(C)=O)C(=O)N[C@H](C(=O)N[C@@H](CCCCN)C(=O)N[C@@H](CCCCN)C(=O)N[C@@]1(C)CCC/C=C\CCC[C@@](C)(C(N)=O)NC(=O)[C@H](CO)NC(=O)[C@H](CCC(=O)O)NC(=O)[C@H](C)NC1=O)[C@@H](C)CC` (Ac-GLFDIIKK[S5]AES[S5]-NH2; staple (Z) 9-13), the MIC is over 128 µg/mL with Candida parapsilosis; over 128 µg/mL in the data set with Pichia kudriavzevii; over 128 µg/mL in [Candida] auris [1]; over 128 µg/mL against Candida tropicalis [2]; over 128 µg/mL in the data set on Nakaseomyces glabratus [3]; over 64 µg/mL against Candida albicans [4]. The minimal inhibitory concentration (MIC) in the data set with Candida albicans [5] is over 128 µg/mL; with Candida tropicalis [6], 32 µg/mL (≈ 21.2 µM); in data set [Candida] auris [7], over 128 µg/mL; with Nakaseomyces glabratus [8], over 128 µg/mL; in the data set with Candida albicans [9] it was over 128 µg/mL.
